Reference: ChEMBL document CHEMBL5209569, “Membrane potential based assay for SLC6A8 using HEK-293 JumpIN SLC6A8 OE cells” (2022)

Target: T1, Sodium- and chloride-dependent creatine transporter 1 (Homo sapiens, UniProt P48029)
T1 sequence (P48029 whole entry): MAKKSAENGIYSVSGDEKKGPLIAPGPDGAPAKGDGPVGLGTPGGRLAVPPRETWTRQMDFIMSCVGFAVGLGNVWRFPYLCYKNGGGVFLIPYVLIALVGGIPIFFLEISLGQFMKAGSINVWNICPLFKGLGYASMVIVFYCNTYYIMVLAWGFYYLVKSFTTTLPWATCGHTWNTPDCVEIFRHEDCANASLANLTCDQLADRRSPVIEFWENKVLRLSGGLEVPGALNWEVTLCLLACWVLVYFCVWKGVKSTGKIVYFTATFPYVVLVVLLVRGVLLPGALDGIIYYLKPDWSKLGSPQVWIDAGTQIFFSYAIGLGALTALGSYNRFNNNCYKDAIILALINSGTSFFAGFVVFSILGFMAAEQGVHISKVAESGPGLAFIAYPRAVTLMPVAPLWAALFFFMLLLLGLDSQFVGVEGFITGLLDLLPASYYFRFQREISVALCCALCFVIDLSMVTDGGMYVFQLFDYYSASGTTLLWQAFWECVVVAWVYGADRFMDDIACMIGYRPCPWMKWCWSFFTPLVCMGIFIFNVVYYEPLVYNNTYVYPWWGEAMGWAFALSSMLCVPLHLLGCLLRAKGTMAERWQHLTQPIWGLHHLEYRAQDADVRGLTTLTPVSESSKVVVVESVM
Experiment: Substrate uptake by the Sodium- and Chloride-Dependent Creatine Transporter 1 (CRTR, SLC6A8) as assessed by the fluorescent FLIPR membrane potential dye in HEK-293 JumpIN-SLC6A8 cells (PubChem AID: 1794823)
Assay type: functional, cell-based, HEK293

In the case of `CN(CC(=O)O)C(=N)N` [CREATINE], the EC50 is reported as 5 µM.
